This passage reports EC50 results from ChEMBL document CHEMBL1148607, “A minimalist design approach to antimicrobial agents based on a thionin template” (J Med Chem, 2006).

Common to all, as to format: functional, organism-based
For assay [1], the system named is Clavibacter michiganensis. The assay is described as follows: Antibacterial activity against Clavibacter michiganensis.
For another assay, the system named is Sinorhizobium meliloti. The experiment in a line: Antibacterial activity against Rhizobium meliloti.
The subject of the next assay is Xanthomonas campestris. The assay is described as follows: Antibacterial activity against Xanthomonas campestris.
A further assay has as its system Botrytis cinerea. The assay is described as follows: Antifungal activity against Botrytis cinerea.
For assay [2], the system named is Plectosphaerella cucumerina. The assay is described as follows: Antifungal activity against Plectosphaerella cucumerina.

Non-standard residues stand in square brackets, D forms with d. Residues, ends and D or L forms follow the SMILES beside them. GABA = NCCCC(=O)O Where only a bound is given, the exact number is not on record here.

`CC[C@H](C)[C@H](NC(=O)[C@H](CCC(=O)O)NC(=O)[C@@H](N)CCCN=C(N)N)C(=O)NCCCC(=O)N[C@@H](C)C(=O)N[C@@H](CCCCN)C(=O)N[C@@H](CCCCN)C(=O)NCCCC(=O)N[C@@H](CCCN=C(N)N)C(=O)O` (H-REI[GABA]AKK[GABA]R-OH): the EC50 in assay [1] was 5.13 µM; in the assay on Sinorhizobium meliloti, over 50 µM; with Xanthomonas campestris, over 50 µM; with Botrytis cinerea it was 4.1 µM; in assay [2], 15.7 µM.

For `CC(C)C[C@H](NC(=O)[C@H](CCCN=C(N)N)NC(=O)CCCNC(=O)[C@@H](NC(=O)[C@H](CC(N)=O)NC(=O)[C@H](Cc1ccc(O)cc1)NC(=O)CCCNC(=O)[C@H](CC(N)=O)NC(=O)[C@H](CCCN=C(N)N)NC(=O)[C@H](C)NC(=O)[C@H](Cc1c[nH]c2ccccc12)NC(=O)[C@@H](N)[C@@H](C)O)C(C)C)C(=O)N1CCC[C@H]1C(=O)O` (H-TWARN[GABA]YNV[GABA]RLP-OH), the EC50 in assay [1] was 3.27 µM; in the assay with Sinorhizobium meliloti, over 50 µM; in the assay on Xanthomonas campestris, over 50 µM; with Botrytis cinerea it was 1.6 µM; in assay [2], 3.97 µM.

As to “H-THRTRPALAARGASNCYSTYRASNVALCYSARGLEPRARGGLIIECYSALALYSLYSCYS-OH (cysteines drawn unpaired)”, the EC50 in assay [1] came to 0.03 µM; in the assay on Sinorhizobium meliloti, 2.07 µM; in the assay with Xanthomonas campestris, 1.03 µM; in the assay with Botrytis cinerea, 0.08 µM; in assay [2], 0.16 µM.
